Experimental data as given in US20080039392A1, “CRAC channel and modulator screening methods” (THE REGENTS OF THE UNIVERSITY OF CALIFORNIA, priority 2006, published 2008).
Entries after “also recorded” stand apart in the source; their conditions may differ.

Columns and labels:
[1] = target: T1, E180D Orai mutant + Stim (Drosophila melanogaster, UniProt Q9U6B8, E178D); test: Whole-cell recording of E180D Orai-induced CRAC current in S2 cells; type: cell-based; conditions: for effect of divalent cation on E180D Orai-induced current: 20 mM external divalent vs 2 mM Ca2+; for IC50: scaled to current in divalent-free solution
T1 construct: A cDNA clone, pAc5.1/olf186-F, encoding full-length Drosophila olf186-F-RB; expressed in transfected cells; host or cells: Drosophila S2 cells (Invitrogen)
Source text: (§1) Generation of pAc5.1/EGFP, pAc5.1/D-STIM, pAc5.1/D-STIM-V5-His and pAc5.1/olf186-F (GenBank accession number DQ503470) were as described^5. olf186-F pore mutants were made by exchanging the corresponding codons (E180A: GAG to GCG; E180D: GAG to GAC; D184A: GAT to GCT; D186A: GAT to GCT; N188A: AAT to GCT; FIG. 14) using the QuikChange site-directed mutagenesis kit (Stratagene). The pAc5.1/HA-olf186-F clone was made by adding the HA tag via PCR and re-cloned into the XhoI and NotI sites of pAc5.1/V5-His B expression vector. Resulting clones were confirmed by sequencing. Description of the primers and conditions for cloning is available upon request. Both HA-olf186-F and Stim-V5-His were verified for normal function by whole-cell recording.
(§2) Cells transfected (Amaxa) with Orai and Stim constructs were identified by fluorescence of co-transfected GFP. Patch clamp experiments were performed at room temperature in the standard whole-cell recording, using conditions similar to those reported previously^10. The membrane capacitance of S2 cells selected for recording was 11.6±0.4 pF (n=131 cells). Membrane potentials were corrected for a liquid junction potential of 10 mV between the pipette and bath solution. The series resistance (2-7 MΩ) was not compensated. The membrane potential was held at −10 mV, and 220-ms voltage ramps from −130 to 90 mV alternating with 220-ms pulses to −130 mV were delivered every 2 s. Only cells with high input (>2 GΩ) were selected for recording. External and pipette solution recipes are listed in supplementary table 1. Analyzed data are presented as mean ±SEM.
(§3) Data were analyzed by Pulse (Heka Electronics) and Origin (OriginLab Corp.). Five I-V curves were averaged for display. […] Since almost all S2 cells at the moment of break-in display an outward current that disappears during perfusion with internal solution (but before the inward CRAC current starts to develop), the following procedure for leak subtraction was employed. The first three ramp currents after the outward current subsided were averaged (Imid). Then, another set of three ramps after maximal inward CRAC current had developed were averaged (Imax). The difference between Imax and Imid represents an isolated CRAC current but with amplitude less than the actual one. To correct this the difference was scaled such that the value of current at −130 mV is equal to maximal inward current minus initial inward current. Then the scaled difference was subtracted from Imax followed by fitting with a polynomial function. This fit was considered as the basal leak current. […] In this case a linear I-V curve reversing at 0 mV with current magnitude at +90 mV equal to the sustained outward current was assigned as leak current. For E180D Orai-induced CRAC current, the initial current was considered as leak.

[2] = tested on: CRAC current in olf186-F+Stim transfected S2 cells; test: Whole-cell recording of CRAC current in S2 cells co-transfected with olf186-F (WT Orai) + Stim; type: cell-based, Drosophila; conditions: for CRAC current density: at −130 mV, high-Ca2+ pipette solution, 10 μM IP3 in pipette or TG in bath
Protocol: Whole-cell recording. Patch-clamp experiments were performed at room temperature in the standard whole-cell recording configuration. The membrane capacitance (a measure of cell surface area) of S2 cells selected for recording was 9.15±0.27 pF (mean ±SEM, n=287 cells, 22 experiments). To calculate current densities, peak current amplitudes were divided by membrane capacitance for each cell.
as §2, §3

[3] = target: T2, D184A, D186A, N188A Orai mutants + Stim (Drosophila melanogaster, UniProt Q9U6B8, D182A); test: Whole-cell recording of CRAC current of charge-neutralizing Orai mutants, block by Gd3+; type: cell-based; conditions: D184A Orai
T2 construct: A cDNA clone, pAc5.1/olf186-F, encoding full-length Drosophila olf186-F-RB; expressed in transfected cells; host or cells: Drosophila S2 cells (Invitrogen)
Source text: as §1, §2

[4] = target: T3, D184A, D186A, N188A Orai mutants + Stim (Drosophila melanogaster, UniProt Q9U6B8, D184A); test: as above; type: cell-based; conditions: D186A Orai
T3 construct: A cDNA clone, pAc5.1/olf186-F, encoding full-length Drosophila olf186-F-RB; expressed in transfected cells; host or cells: Drosophila S2 cells (Invitrogen)
Source text: as §1, §2

[5] = target: T4, D184A, D186A, N188A Orai mutants + Stim (Drosophila melanogaster, UniProt Q9U6B8, N186A); test: as above; type: cell-based; conditions: N188A Orai
T4 construct: A cDNA clone, pAc5.1/olf186-F, encoding full-length Drosophila olf186-F-RB; expressed in transfected cells; host or cells: Drosophila S2 cells (Invitrogen)
Source text: as §1, §2

[6] = tested on: Drosophila S2 cells; test: Single-cell ratiometric fura-2 [Ca2+]i imaging; type: cell-based; conditions: ionomycin in zero-Ca2+ solution, control cells
Protocol: RNAi in Drosophila S2 cells. RNAi experiments were adapted from the protocols described by Worby et al. (2). Drosophila S2 cells (0.5×10^6) were seeded in T-25 flasks in 2 ml of complete S2 media. The next day, media was removed and replaced with 2 ml serum-free S2 media. 20 μg dsRNA was added and cells were incubated at room temperate for 45 min with gentle rocking. 4 ml S2 media was added and cells were incubated for 5 days at 24° C. Cells were then harvested and either plated for single cell Ca^2+ imaging and patch-clamp experiments or processed for RT-PCR analysis.
Single-cell [Ca2+]i imaging. Ratiometric [Ca2+]i imaging was performed as described, using solution recipes described in Table 3. Transfected cells were recognized by co-expressed enhanced green fluorescent protein (EGFP), using filters to avoid contamination of Fura-2 fluorescence by bleed-through of GFP fluorescence. Data were analysed with Metafluor software (Universal Imaging) and OriginPro 7.5 software (OriginLab) and are expressed as means ±SEM.

[7] = tested on: Stim-Orai protein interaction; test: Co-immunoprecipitation of Stim and Orai; type: cell-based, Drosophila; conditions: Ca2+ store depletion, 1 μM TG 15 min
Protocol: Two days after transfection, 5×10^6 cells were treated with either Ringer or zero-Ca^2+ Ringer+1 μM TG using solutions described^6 for 15 min at room temperature. Cells transfected with Stim-V5-His only or HA-olf186-F only were used as controls. Cell extracts were then prepared using RIPA lysis buffer (Upstate) according to manufacturer instructions. The extracts were pre-cleared with protein A/G beads (Pierce) and protein concentration was determined, using the Pierce BCA Protein Reagent Kit. The cell lysate was then diluted to approximately 1 mg/ml total protein with PBS and mixed with either anti-HA monoclonal antibodies (1 μg/100 μg total protein, Santa Cruz) or anti-V5 monoclonal antibodies (1 μg/100 μg total protein, Invitrogen) for 4 hr at 4° C. Equal amount of samples were mixed with either normal mouse IgG or vehicle as negative controls. Protein A/G beads were subsequently added (1 μl/1 μg IgG) to rock overnight at 4° C. Proteins were eluted by boiling in 4× sample buffer (Invitrogen). Samples were resolved by SDS-PAGE and analyzed by standard western blotting techniques. Anti-HA monoclonal antibodies (Santa Cruz) were used at a dilution of 1:200. Anti-V5 monoclonal antibodies (Invitrogen) were used at a dilution of 1:2500. Proteins were detected by developing with the SuperSignal (Pierce) detection system.

T1 sequence (Q9U6B8 whole entry E178D): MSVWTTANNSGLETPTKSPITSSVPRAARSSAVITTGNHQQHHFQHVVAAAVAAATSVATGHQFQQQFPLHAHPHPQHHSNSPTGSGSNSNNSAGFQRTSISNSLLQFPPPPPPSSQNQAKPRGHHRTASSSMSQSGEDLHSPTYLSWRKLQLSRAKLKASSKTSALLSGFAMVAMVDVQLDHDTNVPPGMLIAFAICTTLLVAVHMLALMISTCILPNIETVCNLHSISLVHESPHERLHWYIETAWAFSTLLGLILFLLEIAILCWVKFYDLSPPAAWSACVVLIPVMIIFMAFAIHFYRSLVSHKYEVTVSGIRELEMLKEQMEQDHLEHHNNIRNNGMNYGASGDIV
T1 sequence (P83094 24-570, further chain): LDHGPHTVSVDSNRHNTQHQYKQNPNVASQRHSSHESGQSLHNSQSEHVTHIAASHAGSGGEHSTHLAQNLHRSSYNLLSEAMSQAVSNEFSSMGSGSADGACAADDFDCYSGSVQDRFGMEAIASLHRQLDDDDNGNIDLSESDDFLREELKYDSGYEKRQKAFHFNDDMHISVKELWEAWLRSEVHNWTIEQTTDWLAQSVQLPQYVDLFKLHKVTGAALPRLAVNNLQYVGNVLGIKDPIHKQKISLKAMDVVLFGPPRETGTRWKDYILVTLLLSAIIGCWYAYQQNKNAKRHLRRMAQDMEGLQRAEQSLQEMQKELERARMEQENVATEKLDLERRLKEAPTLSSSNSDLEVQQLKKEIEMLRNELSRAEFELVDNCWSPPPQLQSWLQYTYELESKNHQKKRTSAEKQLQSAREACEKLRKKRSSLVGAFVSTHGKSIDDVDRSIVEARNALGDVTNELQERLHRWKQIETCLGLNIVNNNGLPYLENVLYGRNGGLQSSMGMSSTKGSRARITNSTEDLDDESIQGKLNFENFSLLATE
T4 sequence (P83094 24-570): as the sequence (P83094 24-570, further chain) above
T4 sequence (Q9U6B8 whole entry N186A): as the sequence (Q9U6B8 whole entry E178D) above, with D178E, N186A counted along it
T2 sequence (P83094 24-570): as the sequence (P83094 24-570, further chain) above
T2 sequence (Q9U6B8 whole entry D182A): as the sequence (Q9U6B8 whole entry E178D) above, with D178E, D182A counted along it
T3 sequence (P83094 24-570): as the sequence (P83094 24-570, further chain) above
T3 sequence (Q9U6B8 whole entry D184A): as the sequence (Q9U6B8 whole entry E178D) above, with D178E, D184A counted along it

NCCOB(c1ccccc1)c1ccccc1 [2-APB, 2-aminoethyldiphenyl borate]
time course of E180D outward CRAC current ([1]; 5 μM): immediate decrease preceding potentiation
time course of E180D outward CRAC current ([1]; 20 μM): immediate increase preceding inhibition
effect on Ca2+ (CRAC) current ([2]; 5 μM): characteristic potentiation of current before blocking; also recorded: potentiated
effect on Ca2+ (CRAC) current ([2]; 20 μM): blocked; also recorded: inhibited

[Ba+2] [Ba^2+]
effect of divalent cation on E180D Orai-induced current [1]: significantly increased the inward current while decreasing the outward current

[Ca+2] [Ca^2+]
effect of divalent cation on E180D Orai-induced current [1]: significantly decreased the outward current
IC50 ([1]; IC50, half-blocking Ca2+ concentration for inward current, at −130 mV): 48 ± 13 µM
IC50 ([1]; IC50, half-blocking Ca2+ concentration for outward current, at 90 mV): 2050 ± 780 µM

[Gd+3] [Gd^3+]
suppression of native and WT Orai-induced CRAC current [2]: very effectively suppresses
effect on enhanced Ca2+ current ([2]; 50 nM): blocked
potency of Gd3+ block [3]: significantly reduced
potency of Gd3+ block [4]: significantly reduced
potency of Gd3+ block [5]: to a lesser degree

O=P(O)(O)O[C@@H]1[C@H](O)[C@H](O)[C@@H](OP(=O)(O)O)[C@H](OP(=O)(O)O)[C@H]1O [IP3, inositol 1,4,5-trisphosphate]
CRAC current density [2]: −11.4±3.1 pA/pF

[Mg+2] [Mg^2+]
effect of divalent cation on E180D Orai-induced current [1]: increased the current

[Sr+2] [Sr^2+]
effect of divalent cation on E180D Orai-induced current [1]: had little effect

C[C@H](CCC(=O)O)C[C@H](C)C[C@H](C)C(=O)/C=C(\O)[C@H](C)C[C@H](C)C/C=C/[C@@H](C)[C@@H](O)[C@@H](C)[C@@H](O)C[C@@H]1CC[C@@](C)([C@H]2CC[C@@](C)([C@@H](C)O)O2)O1 [ionomycin]
peak of Ca2+ release transient [6]: ~200 nM

C/C=C(/C)C(=O)O[C@H]1C(C)=C2[C@H]([C@@H]1OC(=O)CCCCCCC)[C@@](C)(OC(C)=O)C[C@H](OC(=O)CCC)[C@@]1(O)[C@H]2OC(=O)[C@@]1(C)O [thapsigargin]
CRAC current density [2]: −7.6±2.5 pA/pF
Stim-Orai protein interaction (co-immunoprecipitation) [7]: dramatically increased
